Measurements published in patent US20210188843A1, “QUINOLINE COMPOUNDS AND THEIR PREPARATION AND USE AS ANTIMALARIAL AGENTS” (The United States of America,as represented by the …, priority 2018, published 2021).
Values after ≈ are worked out from the molar mass of the structure shown. Where two headings read alike, the source gives them in different places.

Assays:
Solubility pH 7.4 = type: physicochemical; settings: aqueous buffer
[1] = tested on: Asexual parasites of P. falciparum strain 3D7; assay: In vitro drug activity on asexual parasites (SYBR Green assay); type: cell-based; settings: Plasmodium falciparum, P. falciparum 3D7 asexual stage, 72 h, read-out: Asexual EC50
Description: Cell culture. Asexual parasites of P. falciparum strain 3D7 were cultured as described previously [Trager W, et al., Journal of Parasitology 2005, 91: 484-486]. Stage III-V gametocytes were selected and enriched with 3-day treatment with 50 mM N-acetylglucosamine (NAG) and the following Percoll density gradient centrifugation after gametocyte production [Tanaka T Q, et al., Molecular and Biochemical Parasitology, 2011, 177: 160-163]. Gametocytes of HB3 and Dd2 strains were produced and then set up for assay in a similar process. HepG2 cells (ATCC, cat. no. 77400) were cultured in 175-cm^2 tissue culture flasks with 30 ml growth medium at 37° C. in a 5% CO2 humidified atmosphere. Growth medium was made with Dulbecco's Modified Eagle Medium with 10% fetal bovine serum (FBS). Growth medium was replaced every other day and cells were passed at 75% confluence.
Asexual parasites of P. falciparum strain 3D7 were cultured as described previously (Trager, W. et al., J. Parasitol. 2005, 91(3): 484-486). Drug activity on asexual stage parasites was tested using a SYBR Green assay as described previously (Eastman, R. T. et al., Antimicrob. Agents Chemother. 2013, 57(1): 425-435; Smilkstein, M. et al., Antimicrob. Agents Chemother. 2004, 48(5): 1803-1806). Briefly, parasites were diluted to 0.5% parasitemia in complete culture medium with 2% hematocrit and drugs diluted in DMSO (<0.5%) and were loaded into a 96-well plate (200 μl/well). No drug and RBC alone wells were included as positive and background controls, respectively, and each testing condition was examined in duplicated. After 72 h incubation under the standard culture condition and a freeze-thaw lysis step at −80° C. and room temperature, 100 μl/well of lysis buffer containing SYBR Green I was added to the parasite culture and incubated for 30 min at room temperature. The fluorescence of each well was measured at 520 nm following excitation at 490 nm using a FLUOstar Optima™ microplate reader (BMG Labtech).
Compounds were screened against gametocytes and asexual parasites as described in Examples 1 and 2.

[2] = Microsomal stability (rat); type: in vitro ADME; settings: rat microsomes
[3] = Table 2, read-out: Microsomal Stability (rat) T1/2
[4] = Table 3, read-out: Microsomal Stability (rat) T1/2

solubility (Solubility pH 7.4; Table 3) [µg/mL] | EC50 ([1]; Table 3) [µM] | EC50 ([1]; Table 1) [µM] | SMILES | other results
 |  |  | N#Cc1cccc(-n2c(=N)ccc3cnc4ccc(-c5ccc(Cl)cc5)cc4c32)c1 | solubility (Solubility pH 7.4; Table 2): 25.9 µg/mL (≈ 63.7 µM); EC50 ([1]; Table 2): 0.186 µM; half-life [2, 3]: > 30 min
 |  |  | N=c1ccc2cnc3ccc(-c4ccc(Cl)cc4)cc3c2n1-c1cccc(C(F)(F)F)c1 | solubility (Solubility pH 7.4; Table 2): 11.5 µg/mL (≈ 25.6 µM); EC50 ([1]; Table 2): 0.213 µM; half-life [2, 3]: > 30 min
 |  |  | Cc1ccc([S+](=O)([O-])/N=c2\ccc3cnc4ccc(-c5ccc(Cl)cc5)cc4c3n2-c2ccc(C(=O)NC3CC3)cc2)cc1 | solubility (Solubility pH 7.4; Table 2): < 1 µg/mL; EC50 ([1]; Table 2): 0.059 µM; half-life [2, 3]: 11.5 min
 |  |  | N=c1ccc2cnc3ccc(-c4ccc(Cl)cc4)cc3c2n1-c1ccc(C(=O)NC2CC2)cc1 | solubility (Solubility pH 7.4; Table 2): > 69 µg/mL; EC50 ([1]; Table 2): 0.0857 µM; half-life [2, 3]: > 30 min
> 38 | 0.164 |  | Cc1ncncc1-n1c(=N)n(C)c2cnc3ccc(-c4ccc(N)nc4)cc3c21 | half-life [2, 4]: > 30 min
 | 0.193 |  | Cn1/c(=N\c2cncnc2)n(-c2cncnc2)c2c3cc(-c4cccc(F)c4)ccc3ncc21 | 
36.3 (≈ 102 µM) | 0.57 |  | Cn1nccc1-c1ccc2ncc3c(c2c1)n(-c1cncnc1)c(=N)n3C | 
1.3 (≈ 3.02 µM) | 0.0508 |  | COc1cc(-c2ccc3ncc4c(c3c2)n(-c2cncnc2C)c(=N)n4C)ccc1Cl | 
> 61 | 0.229 |  | COc1ccc(-c2ccc3ncc4c(c3c2)n(-c2cncnc2C)c(=N)n4C)cc1F | 
< 1 | 0.0525 |  | COc1cc(-c2ccc3ncc4c(c3c2)n(-c2cncnc2C)c(=N)n4C)ccc1F | 
10.6 (≈ 22.6 µM) | 0.16 |  | Cc1ncncc1-n1c(=N)n(C)c2cnc3ccc(-c4ccc(Cl)c(C(F)(F)F)c4)cc3c21 | half-life [2, 4]: > 30 min
 | 0.136 |  | Cn1c(=N)n(-c2cncnc2)c2c3cc(-c4ccc(Cl)c(C#N)c4)ccc3ncc21 | 
16 (≈ 33 µM) | 0.158 |  | Cc1ncncc1-n1c(=N)n(C)c2cnc3ccc(-c4ccc(Cl)c(OC(F)(F)F)c4)cc3c21 | half-life [2, 4]: > 30 min
< 1 | 0.315 |  | Cn1c(=N)n(-c2cncnc2)c2c3cc(-c4ccc(Cl)c(OC(F)(F)F)c4)ccc3ncc21 | half-life [2, 4]: > 30 min
 | 0.0258 |  | COc1ccc(-c2ccc3ncc4c(c3c2)n(-c2cncnc2C)c(=N)n4C)cc1OC | half-life [2, 4]: > 30 min
3.4 (≈ 8.46 µM) | 0.14 |  | Cn1c(=N)n(-c2ccnc(N)n2)c2c3cc(-c4ccc(Cl)cc4)ccc3ncc21 | half-life [2, 4]: > 30 min
20.9 (≈ 54.2 µM) | 0.523 |  | Cn1c(=N)n(-c2ccnc(N)n2)c2c3cc(-c4cccc(F)c4)ccc3ncc21 | half-life [2, 4]: > 30 min
< 1 | 0.45 |  | Cn1c(=N)n(-c2nccc(C(F)(F)F)n2)c2c3cc(-c4ccc(Cl)cc4)ccc3ncc21 | 

solubility (Solubility pH 7.4; Table 3) [µg/mL] | EC50 ([1]; Table 3) [µM] | EC50 ([1]; Table 1) [µM] | SMILES | other results
< 1 | 0.202 |  | Cn1c(=N)n(-c2nccc(C(F)(F)F)n2)c2c3cc(-c4cccc(F)c4)ccc3ncc21 | 
< 1 | 2.11 |  | COc1ccnc(-n2c(=N)n(C)c3cnc4ccc(-c5ccc(Cl)cc5)cc4c32)n1 | 
< 1 | 43.1 |  | Cn1c(=N)n(-c2nccc(O)n2)c2c3cc(-c4ccc(Cl)cc4)ccc3ncc21 | half-life [2, 4]: > 30 min
6.5 (≈ 16.2 µM) | 1.31 |  | COc1ccnc(-n2c(=N)n(C)c3cnc4ccc(-c5cccc(F)c5)cc4c32)n1 | 
< 1 | 18.8 |  | Cn1c(=N)n(-c2nccc(O)n2)c2c3cc(-c4cccc(F)c4)ccc3ncc21 | half-life [2, 4]: > 30 min
< 1 | 1.86 |  | Cn1c(=N)n(-c2nccc(N)n2)c2c3cc(-c4ccc(Cl)cc4)ccc3ncc21 | half-life [2, 4]: > 30 min
 |  | 0.118 | Cn1c(=N)n(-c2cccc(CC#N)c2)c2c3cc(-c4ccc(Cl)cc4)ccc3ncc21 [Compound 73, 2-(3-(8-(4-chlorophenyl)-2-imino-3-methyl-2,3-dihydro-1H-imidazo[4,5-c]quinolin-1-yl)phenyl)acetonitrile] | 
 |  | 0.224 | Cn1c(=N)n(-c2ccnc(C#N)c2)c2c3cc(-c4ccc(Cl)cc4)ccc3ncc21 [Compound 90, 4-(8-(4-chlorophenyl)-2-imino-3-methyl-2,3-dihydro-1H-imidazo[4,5-c]quinolin-1-yl)picolinonitrile] | 
 |  | 0.801 | Cc1cc(N2CCCC2)c(C#N)cc1-n1c(=N)n(C)c2cnc3ccc(-c4ccc(Cl)cc4)cc3c21 [Compound 111, 5-(8-(4-chlorophenyl)-2-imino-3-methyl-2,3-dihydro-1H-imidazo[4,5-c]quinolin-1-yl)-4-methyl-2-(pyrrolidin-1-yl)benzonitrile] | 
 |  | 0.352 | Cc1cc(N2CCOC(C)C2)c(C#N)cc1-n1c(=N)n(C)c2cnc3ccc(-c4ccc(Cl)cc4)cc3c21 (stereo not shown) [Compound 119, 5-(8-(4-chlorophenyl)-2-imino-3-methyl-2,3-dihydro-1H-imidazo[4,5-c]quinolin-1-yl)-4-methyl-2-(2-methylmorpholino)benzonitrile] | 
 |  | 1.47 | Cc1cc(N2C[C@@H]3CCCN[C@@H]3C2)c(C#N)cc1-n1c(=N)n(C)c2cnc3ccc(-c4ccc(Cl)cc4)cc3c21 [Compound 120, 5-(8-(4-chlorophenyl)-2-imino-3-methyl-2,3-dihydro-1H-imidazo[4,5-c]quinolin-1-yl)-4-methyl-2-((4aS,7aS)-octahydro-6H-pyrrolo[3,4-b]pyridin-6-yl)benzonitrile] | 
 |  | 1.5 | CC(=O)N1CCC(N2CCC(n3c(=N)n(C)c4cnc5ccc(-c6ccc(Cl)cc6)cc5c43)CC2)CC1 [Compound 127, 1-(4-(8-(4-chlorophenyl)-2-imino-3-methyl-2,3-dihydro-1H-imidazo[4,5-c]quinolin-1-yl)-[1,4′-bipiperidin]-1′-yl)ethan-1-one] | 
 |  | 0.627 | CCC(=O)N1CCC(N2CCC(n3c(=N)n(C)c4cnc5ccc(-c6ccc(Cl)cc6)cc5c43)CC2)CC1 [Compound 128, 1-(4-(8-(4-chlorophenyl)-2-imino-3-methyl-2,3-dihydro-1H-imidazo[4,5-c]quinolin-1-yl)-[1,4′-bipiperidin]-1′-yl)propan-1-one] | 
 |  | 0.0163 | Cc1cc(N2CCC(NS(C)(=O)=O)CC2)c(C#N)cc1-n1c(=N)n(C)c2cnc3ccc(-c4ccc(Cl)cc4)cc3c21 [Compound 131, N-(1-(4-(8-(4-chlorophenyl)-2-imino-3-methyl-2,3-dihydro-H-imidazo[4,5-c]quinolin-1-yl)-2-cyano-5-methylphenyl)piperidin-4-yl)methanesulfonamide] | 
 |  | 0.00626 | Cc1cc(N2CCNC(=O)C2)c(C#N)cc1-n1c(=N)n(C)c2cnc3ccc(-c4ccc(Cl)cc4)cc3c21 [Compound 133, 5-(8-(4-chlorophenyl)-2-imino-3-methyl-2,3-dihydro-1H-imidazo[4,5-c]quinolin-1-yl)-4-methyl-2-(3-oxopiperazin-1-yl)benzonitrile] | 
 |  | 0.0743 | Cc1cc(F)c(C#N)cc1-n1c(=N)n(C)c2cnc3ccc(-c4ccc(Cl)cc4)cc3c21 [Compound 134, 5-(8-(4-chlorophenyl)-2-imino-3-methyl-2,3-dihydro-1H-imidazo[4,5-c]quinolin-1-yl)-2-fluoro-4-methylbenzonitrile] | 
 |  | 0.236 | COC(=O)/N=c1\n(C)c2cnc3ccc(-c4cccc(F)c4)cc3c2n1-c1cc(C#N)c(N2CCOCC2)cc1C [Compound 148, Methyl (E)-(1-(5-cyano-2-methyl-4-morpholinophenyl)-8-(3-fluorophenyl)-3-methyl-1,3-dihydro-2H-imidazo[4,5-c]quinolin-2-ylidene)carbamate] | 
